Laboratory results from PMC6227957, “Peptides derived from cadherin juxtamembrane region inhibit platelet function” (Royal Society Open Science, 2018).

Key:
washed human platelets [1] = assay: Platelet ATP secretion, luminescence-based assay; assay type: cell-based; conditions: for Effect on TRAP-induced platelet ATP secretion, alanine scan and control peptides of KEPLLP: 12.5 µM peptide, n = 4 donors, figure 5a,b; for Platelet ATP secretion induced by peptide alone (basal, no agonist) / Effect on TRAP-induced platelet ATP secretion: 50 µM peptide, washed human platelets; for Platelet ATP secretion induced by peptide alone (basal, no agonist): 12 min at 37°C, without TRAP, n = 6, figure 2; for Effect on TRAP-induced platelet ATP secretion: preincubated 12 min at 37°C, then 4 µM TRAP for 3 min, luminescence arb. units, figures 2, 3c,d
Experimental: Washed platelets (WPs) were prepared from blood samples collected from healthy donors who were free of medications known to affect platelet function for at least 10 days, as previously described. Written, informed consent was obtained from all participants in line with the Declaration of Helsinki. In brief, venous blood was drawn into 15% (v/v) of acid-citrate-dextrose (ACD) anticoagulant (38 mM citric acid anhydrous, 75 mM sodium citrate, 124 mM dextrose). Blood was centrifuged at 150g for 10 min and the platelet-rich plasma (PRP) was collected. PRP was further centrifuged at 720g for 10 min in the presence of 1 µM prostaglandin E1 (PGE1). The platelet pellet was resuspended in buffer A (6 mM dextrose, 130 mM NaCl, 9 mM NaHCO3, 10 mM sodium citrate, 10 mM Tris base, 3 mM KCl, 0.81 mM KH2PO4 and 0.9 mM MgCl2·6H2O, pH 7.4). The washed platelet count was adjusted to 3 × 10^8 platelets ml^−1 and supplemented with 1.8 mM CaCl2 immediately prior to use.
ATP secretion was measured using a luminescence-based assay, as previously described. Peptides, buffer or vehicle control, in a final volume of 10 µl, were dispensed into white 96-well plates. To this, 70 µl of WPs were gently added. Platelets were incubated with peptides at 37°C for 12 min (under shaking) in the Perkin Elmer 1420 96-well plate reader. Platelet agonist (TRAP; 4 µM; 10 µl) was then added to induce platelet ATP secretion. The suspension (peptide + platelets + agonist) was incubated for 3 min at 37°C with constant shaking. Finally, 10 µl of ATP detecting reagent chronolume (Labmedics, UK) was dispensed into each well and luminescence was measured using the Perkin Elmer 1420 96-well plate reader. Platelet ATP secretion response to peptides was measured in the presence and absence of agonist. Data were expressed as the amount of ATP secretion in luminescence arbitrary units (arb. units). Data are represented as the mean ± standard error mean (s.e.m.) of at least four independent donors.

washed human platelets [2] = assay: Platelet ATP secretion, luminescence-based assay; assay type: cell-based; conditions: TRAP 0.25 to 16 µM for 3 min at 37°C; n = 4 donors; figure S1

## EKPLLP [N-terminus reverse charge peptide of KEPLLP, palmitoylated and amidated]
Washed human platelets [1]; 4 µM TRAP
  Effect on TRAP-induced platelet ATP secretion, alanine scan and control peptides of KEPLLP: retained partial inhibitory activity

## KEPLAP [KEPLLP with one leucine replaced with alanine, palmitoylated and amidated]
Washed human platelets [1]; 4 µM TRAP
  Effect on TRAP-induced platelet ATP secretion, alanine scan and control peptides of KEPLLP: loss of peptide activity

## CCCCCCCCCCCCCCCC(=O)NCCCOCCOCCOCCCNC(=O)CCC(N)=O [palmitic acid connected to a Ttds linker, reference compound]
Washed human platelets [1]
  Platelet ATP secretion induced by peptide alone (basal, no agonist): no effect
Washed human platelets [1]; n = 6 donors
  Effect on TRAP-induced platelet ATP secretion: no effect

## SFLLRN [TRAP, reference compound]
Washed human platelets [2]
  TRAP concentration at which ATP secretion is maximal: 16 µM
Washed human platelets [1]; 4 µM TRAP, figure S1
  ATP secretion response at 4 µM TRAP relative to the maximal response: approximately 80%

## KEPLLP [Non-palmitoylated KEPLLP, KEPLLP peptide with no palmitoylation]
Washed human platelets [1]; 50 µM peptide for 12 min at 37°C before 4 µM TRAP, n = 4, figure S4
  Effect of peptide with no palmitoylation on TRAP-induced platelet ATP secretion: failed to inhibit

## EEPLLP [KEPLLP with lysine replaced with glutamic acid, palmitoylated and amidated]
Washed human platelets [1]; 4 µM TRAP
  Effect on TRAP-induced platelet ATP secretion, alanine scan and control peptides of KEPLLP: loss of inhibitory effect

## PLLPKE [randomly scrambled peptide of KEPLLP, palmitoylated and amidated]
Washed human platelets [1]; 4 µM TRAP
  Effect on TRAP-induced platelet ATP secretion, alanine scan and control peptides of KEPLLP: failed to inhibit

## CCCCCCCCCCCCCCCC(=O)O [palmitic acid, reference compound]
Washed human platelets [1]
  Platelet ATP secretion induced by peptide alone (basal, no agonist): no effect
Washed human platelets [1]; n = 6 donors
  Effect on TRAP-induced platelet ATP secretion: no effect

## KEPAAP [KEPLLP with LL replaced with AA, palmitoylated and amidated]
Washed human platelets [1]; 4 µM TRAP
  Effect on TRAP-induced platelet ATP secretion, alanine scan and control peptides of KEPLLP: loss of peptide activity

## KEPLLP [short motif truncated from E-cad 2, N-terminally palmitoylated and C-terminally amidated]
Washed human platelets [1]; 4 µM TRAP, n = 6 donors, figure 4a
  Effect of truncated E-cad 2 peptides on TRAP-induced platelet ATP secretion: most potent inhibitor
Washed human platelets [1]; dose-response study, 4 µM TRAP, n = 4, figure 4b
  Lowest peptide concentration that significantly inhibited TRAP-induced platelet ATP secretion: 12.5 µM
